PubChem BioAssay AID1963837 (Molecular Pharmacology Branch, DTP, NCI, 2024)

Test system: 843126-344-R-J1-PDC complex spheroid viability
Assay: Anticancer human tumor 843126-344-R-J1-PDC patient-derived melanoma cell line growth inhibition [POLQ]
Conditions: for IC50: curve of first compound; for viability, T/C: stronger effect = lower value
Method in brief: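 Patient-derived tumour cells were co-cultured with HUVEC and mesenchymal stem cells as multicellular spheroids at 37 °C. They were treated with POLQ inhibitors (novobiocin, ART-558, RP6685) alone or combined with other agents. Top concentrations were at or near clinical Cmax (otherwise 10 microM; SN-38 at 1 microM), decreasing in half-log steps.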

[1] = second compound 0.0316 µM, first compound 0.0316 µM
[2] = second compound 0.0316 µM, first compound 0.1 µM
[3] = second compound 0.0316 µM, first compound 0.316 µM
[4] = second compound 0.0316 µM, first compound 1 µM
[5] = second compound 0.1 µM, first compound 0.0316 µM
[6] = second compound 0.1 µM, first compound 0.1 µM
[7] = second compound 0.1 µM, first compound 0.316 µM
[8] = second compound 0.1 µM, first compound 1 µM
[9] = second compound 0.316 µM, first compound 0.0316 µM
[10] = second compound 0.316 µM, first compound 0.1 µM
[11] = second compound 0.316 µM, first compound 0.316 µM
[12] = second compound 0.316 µM, first compound 1 µM
[13] = second compound 1 µM, first compound 0.0316 µM
[14] = second compound 1 µM, first compound 0.1 µM
[15] = second compound 1 µM, first compound 0.316 µM
[16] = second compound 1 µM, first compound 1 µM
[17] = second compound 3.16 µM, first compound 0.0316 µM
[18] = second compound 3.16 µM, first compound 0.1 µM
[19] = second compound 3.16 µM, first compound 0.316 µM
[20] = second compound 3.16 µM, first compound 1 µM
[21] = second compound 10 µM, first compound 0.0316 µM
[22] = second compound 10 µM, first compound 0.1 µM
[23] = second compound 10 µM, first compound 0.316 µM
[24] = second compound 10 µM, first compound 1 µM
[25] = second compound 0.0316 µM, first compound 3.16 µM
[26] = second compound 0.0316 µM, first compound 10 µM
[27] = second compound 0.1 µM, first compound 3.16 µM
[28] = second compound 0.1 µM, first compound 10 µM
[29] = second compound 0.316 µM, first compound 3.16 µM
[30] = second compound 0.316 µM, first compound 10 µM
[31] = second compound 1 µM, first compound 3.16 µM
[32] = second compound 1 µM, first compound 10 µM
[33] = second compound 3.16 µM, first compound 3.16 µM
[34] = second compound 3.16 µM, first compound 10 µM
[35] = second compound 10 µM, first compound 3.16 µM
[36] = second compound 10 µM, first compound 10 µM
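Wherever viability, T/C is given: spheroids exposed to drugs for seven days before readout.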

## C=CCn1c(=O)c2cnc(Nc3ccc(N4CCN(C)CC4)cc3)nc2n1-c1cccc(C(C)(C)O)n1 + Cc1cccc(N(C)C(=O)C2C(O)CCN2c2nc(C)cc(C(F)(F)F)c2C#N)c1
Second compound 0.0316 µM
  IC50: > 1 µM
Second compound 0.1 µM
  IC50: > 1 µM
Second compound 0.316 µM
  IC50: > 1 µM
Second compound 1 µM
  IC50: > 1 µM
Second compound 3.16 µM
  IC50: > 1 µM
Second compound 10 µM
  IC50: > 1 µM
Second compound 0.0316 µM, first compound 0.00316 µM
  viability, T/C: 108%
Second compound 0.0316 µM, first compound 0.01 µM
  viability, T/C: 88.7%
[1]
  viability, T/C: 95.2%
[2]
  viability, T/C: 111%
[3]
  viability, T/C: 105%
[4]
  viability, T/C: 81.8%
Second compound 0.1 µM, first compound 0.00316 µM
  viability, T/C: 111%
Second compound 0.1 µM, first compound 0.01 µM
  viability, T/C: 113%
[5]
  viability, T/C: 103%
[6]
  viability, T/C: 113%
[7]
  viability, T/C: 95.9%
[8]
  viability, T/C: 80.8%
Second compound 0.316 µM, first compound 0.00316 µM
  viability, T/C: 101%
Second compound 0.316 µM, first compound 0.01 µM
  viability, T/C: 103%
[9]
  viability, T/C: 108%
[10]
  viability, T/C: 93.3%
[11]
  viability, T/C: 89.3%
[12]
  viability, T/C: 73.7%
Second compound 1 µM, first compound 0.00316 µM
  viability, T/C: 86%
Second compound 1 µM, first compound 0.01 µM
  viability, T/C: 102%
[13]
  viability, T/C: 111%
[14]
  viability, T/C: 99.5%
[15]
  viability, T/C: 122%
[16]
  viability, T/C: 86%
Second compound 3.16 µM, first compound 0.00316 µM
  viability, T/C: 103%
Second compound 3.16 µM, first compound 0.01 µM
  viability, T/C: 105%
[17]
  viability, T/C: 104%
[18]
  viability, T/C: 112%
[19]
  viability, T/C: 113%
[20]
  viability, T/C: 89.3%
Second compound 10 µM, first compound 0.00316 µM
  viability, T/C: 105%
Second compound 10 µM, first compound 0.01 µM
  viability, T/C: 89%
[21]
  viability, T/C: 94.3%
[22]
  viability, T/C: 94.1%
[23]
  viability, T/C: 102%
[24]
  viability, T/C: 83.6%

## C#Cc1c(F)ccc2cc(O)cc(-c3ncc4c(N5CC6CCC(C5)N6)nc(OCC56CCCN5CC(F)C6)nc4c3F)c12 (stereo unspecified) + COC1C(OC(N)=O)C(O)C(Oc2ccc3c(O)c(NC(=O)c4ccc(O)c(CC=C(C)C)c4)c(=O)oc3c2C)OC1(C)C
Second compound 0.0316 µM
  IC50: > 10 µM
Second compound 0.1 µM
  IC50: > 10 µM
Second compound 0.316 µM
  IC50: > 10 µM
Second compound 1 µM
  IC50: > 10 µM
Second compound 3.16 µM
  IC50: > 10 µM
Second compound 10 µM
  IC50: > 10 µM
[1]
  viability, T/C: 101%
[2]
  viability, T/C: 116%
[3]
  viability, T/C: 76.9%
[4]
  viability, T/C: 95.8%
[25]
  viability, T/C: 82.4%
[26]
  viability, T/C: 76%
[5]
  viability, T/C: 82%
[6]
  viability, T/C: 106%
[7]
  viability, T/C: 86.2%
[8]
  viability, T/C: 81.4%
[27]
  viability, T/C: 91.7%
[28]
  viability, T/C: 85.4%
[9]
  viability, T/C: 79.3%
[10]
  viability, T/C: 96.5%
[11]
  viability, T/C: 73.9%
[12]
  viability, T/C: 107%
[29]
  viability, T/C: 109%
[30]
  viability, T/C: 74.2%
[13]
  viability, T/C: 87.9%
[14]
  viability, T/C: 98.7%
[15]
  viability, T/C: 89.3%
[16]
  viability, T/C: 111%
[31]
  viability, T/C: 98.1%
[32]
  viability, T/C: 91.3%
[17]
  viability, T/C: 83.7%
[18]
  viability, T/C: 105%
[19]
  viability, T/C: 91.4%
[20]
  viability, T/C: 107%
[33]
  viability, T/C: 86.6%
[34]
  viability, T/C: 84%
[21]
  viability, T/C: 88.2%
[22]
  viability, T/C: 84.8%
[23]
  viability, T/C: 98.5%
[24]
  viability, T/C: 100%
[35]
  viability, T/C: 93.2%
[36]
  viability, T/C: 71.1%

## O=c1[nH]cc(F)c(=O)[nH]1 + Cc1cccc(N(C)C(=O)C2C(O)CCN2c2nc(C)cc(C(F)(F)F)c2C#N)c1
Second compound 0.0316 µM
  IC50: > 10 µM
Second compound 0.1 µM
  IC50: > 10 µM
Second compound 0.316 µM
  IC50: > 10 µM
Second compound 1 µM
  IC50: > 10 µM
Second compound 3.16 µM
  IC50: > 10 µM
Second compound 10 µM
  IC50: > 10 µM
[1]
  viability, T/C: 101%
[2]
  viability, T/C: 112%
[3]
  viability, T/C: 104%
[4]
  viability, T/C: 101%
[25]
  viability, T/C: 87.3%
[26]
  viability, T/C: 79.3%
[5]
  viability, T/C: 99.8%
[6]
  viability, T/C: 98.3%
[7]
  viability, T/C: 96.5%
[8]
  viability, T/C: 97.5%
[27]
  viability, T/C: 81.5%
[28]
  viability, T/C: 93.2%
[9]
  viability, T/C: 105%
[10]
  viability, T/C: 108%
[11]
  viability, T/C: 96.7%
[12]
  viability, T/C: 82.2%
[29]
  viability, T/C: 110%
[30]
  viability, T/C: 103%
[13]
  viability, T/C: 101%
[14]
  viability, T/C: 88.6%
[15]
  viability, T/C: 107%
[16]
  viability, T/C: 110%
[31]
  viability, T/C: 113%
[32]
  viability, T/C: 96.5%
[17]
  viability, T/C: 99.3%
[18]
  viability, T/C: 94.5%
[19]
  viability, T/C: 113%
[20]
  viability, T/C: 95.8%
[33]
  viability, T/C: 103%
[34]
  viability, T/C: 91.5%
[21]
  viability, T/C: 91.1%
[22]
  viability, T/C: 85.8%
[23]
  viability, T/C: 104%
[24]
  viability, T/C: 102%
[35]
  viability, T/C: 111%
[36]
  viability, T/C: 90%
